Where two headings read alike, the source gives them in different places.
Experiments:
Assay type in all cases: cell-based
[1] = test system: Escherichia coli TK-1765 strain producing CMY-2 (strain E); test: MIC of test compound alone or with β-lactamase inhibitor at 4 μg/mL
Description: (§1) By using a broth microdilution method, the combinational effect of a test compound and a β-lactamase inhibitor was evaluated.
(§2) The evaluation test for antibacterial activity was performed in the same manner as in Test Example 1.
Escherichia coli TK-1765 strain producing CMY-2 (hereinafter, called strain E)

[2] = test system: Carbapenem-resistant Acinetobacter A515 strain; test: MIC of test compound combined with a plurality of β-lactamase inhibitors; conditions: for antibacterial activity in combination with two β-lactamase inhibitors: against all the bacterial strains (Acinetobacter A514 and A515), with SBT and AVI
Description: (§3) By using a broth microdilution method, the combinational effect of a test compound and a plurality of β-lactamase inhibitors was evaluated.
as §2
(§4) As bacterial strains, Carbapenem-resistant Acinetobacter A514 and A515 strains were used.

[3] = test system: Klebsiella pneumoniae Y-1133 strain producing NDM-1, OXA-48, and CTX-M-15 (strain C); test: MIC of test compound alone or with β-lactamase inhibitor at 4 μg/mL
Description: as §1, §2
Klebsiella pneumoniae Y-1133 strain producing NDM-1, OXA-48, and CTX-M-15 (hereinafter, called strain C),
(§5) An antibacterial activity evaluation test was performed in the same manner as in Test Example 6.
(§6) As the bacterial strain, the strains B, C, and D producing β-lactamase and a Klebsiella pneumoniae Y-1069 strain (hereinafter, called strain F) producing OXA-48 and CTX-M-15 were used.

[4] = test system: Klebsiella pneumoniae Y-1020 strain producing KPC-3 and SHV-12 (strain B); test: as above; conditions: for MIC: Strain B; for antibacterial activity in combination with a β-lactamase inhibitor versus without: for all the bacterial strains (strains A to E), summary of Tables 43 to 47
Description: as §1, §2

[5] = test system: Escherichia coli TK-3113 strain producing IMP-8 (strain D); test: as above
Description: as §1, §2
Escherichia coli TK-3113 strain producing IMP-8 (hereinafter, called strain D),
as §5, §6

[6] = test system: Escherichia coli ATCC25922 strain (Escherichia coli A); test: Combinational effect of test compound and antibacterial compound, checkerboard FIC index
Description: (§7) By using a broth microdilution method, the combinational effect of antibacterial activity of a test compound and an antibacterial compound was evaluated.
(§8) As bacterial strains, an Escherichia coli ATCC25922 strain (hereinafter, called Escherichia coli A), a Klebsiella pneumoniae ATCC13883 strain (hereinafter, called Klebsiella pneumoniae A), and a Pseudomonas aeruginosa ATCC27853 strain (hereinafter, called Pseudomonas aeruginosa A) were used.
(§9) The minimum inhibitory concentration (hereinafter, called MIC) was measured according to the Clinical and Laboratory Standards Institute (CLSI) standard method by using the following broth microdilution method.
(§10) The bacterial cells that had been cultured overnight on a Mueller Hinton agar medium were scraped off, suspended at a density equivalent to 0.5 McFarland standard. The obtained suspension was diluted at 10 fold, thereby obtaining an inoculum. Cation-adjusted Mueller Hinton media containing only a test compound, containing only an antibacterial compound, or containing a test compound and an antibacterial compound were inoculated with 0.005 mL of the inoculum, and the cells were cultured at 35° C. for 18 to 20 hours. The minimum drug concentration at which the growth of bacteria was not visually observed was defined as MIC (μg/mL).
(§11) The FIC Index is the minimum value calculated by the following formula.
(§12) FIC Index=(MIC value obtained in a case where test compound is used in combination/MIC value obtained in a case where test compound is used alone)+(MIC value obtained in a case where antibacterial compound is used in combination/MIC value obtained in a case where antibacterial compound is used alone)
(§13) In a case where the FIC Index was 0.5 or less, it was decided that the use of two drugs in combination brings about a synergistic effect.
(§14) In a case where the FIC Index was more than 0.5 and 1 or less, it was decided that the use of two drugs in combination brings about an additive effect. (Diagnostic Microbiology and Infectious Disease, 2004, Vol. 49, p. 197)

[7] = test system: Pseudomonas aeruginosa ATCC27853 strain (Pseudomonas aeruginosa A); test: as above; conditions: for FIC index: Pseudomonas aeruginosa A, checkerboard; for combinational effect with other antibacterial compounds: main strains of Gram-negative bacteria, summary of Tables 40 to 42
Description: as §7, §8, §9, §10, §11, §12, §13, §14

[8] = test system: Klebsiella pneumoniae ATCC13883 strain (Klebsiella pneumoniae A); test: as above
Description: as §7, §8, §9, §10, §11, §12, §13, §14

[9] = test system: Carbapenem-resistant Acinetobacter A514 strain; test: MIC of test compound combined with a plurality of β-lactamase inhibitors
Description: as §3, §2, §4

[10] = test system: Escherichia coli TK-1747 strain producing CTX-M-15 (strain A); test: MIC of test compound alone or with β-lactamase inhibitor at 4 μg/mL
Description: as §1, §2
Escherichia coli TK-1747 strain producing CTX-M-15 (hereinafter, called strain A),

[11] = test compound alone (β-lactamase inhibitor N/A)
[12] = Table 48, against the Carbapenem-resistant Acinetobacter A514 and A515 strains (so in the source), read-out: MIC
[13] = Table 49, against the Carbapenem-resistant Acinetobacter A515 strain, read-out: MIC

`Nc1nc(/C(=N/OC2(C(=O)O)CCC2)C(=O)N[C@@H]2C(=O)N3C[C@@](C(=O)O)(N4CCN(NC(=O)C(=O)c5ccc(O)c(O)c5Cl)C4=O)S[C@H]23)cs1` [Compound B] gave an MIC [1, 11] of 1 µg/mL, an MIC ([1]; with AVI at 4 μg/mL) of 0.03 µg/mL and an MIC ([1]; with SBT at 4 μg/mL) of 0.5 µg/mL. For the same molecule, the MIC ([1]; with TAZ at 4 μg/mL) was 0.12 µg/mL, the MIC ([1]; with VAB at 4 μg/mL) was 0.03 µg/mL and the “antibacterial activity in combination with two β-lactamase inhibitors” value [2] was “High antibacterial activity”. It also gave an MIC ([3]; AVI added at 4 μg/mL) of 0.12 µg/mL, an MIC ([3]; NAC added at 4 μg/mL) of under 0.015 µg/mL and an MIC ([3]; ZID added at 4 μg/mL) of under 0.015 µg/mL. The MIC [3, 11] was 1 µg/mL, the MIC ([4]; AVI added at 4 μg/mL) was 0.25 µg/mL and the MIC ([4]; NAC added at 4 μg/mL) was under 0.015 µg/mL. It also gave an MIC ([4]; VAB added at 4 μg/mL) of under 0.015 µg/mL, an MIC ([4]; ZID added at 4 μg/mL) of under 0.015 µg/mL and an MIC [4, 11] of 2 µg/mL. For the same molecule, the “antibacterial activity in combination with a β-lactamase inhibitor versus without” value [4] was “higher antibacterial activity”, the MIC ([5]; AVI added at 4 μg/mL) was 0.25 µg/mL and the MIC ([5]; NAC added at 4 μg/mL) was under 0.015 µg/mL. It also gave an MIC ([5]; ZID added at 4 μg/mL) of under 0.015 µg/mL, an MIC [5, 11] of 0.5 µg/mL and an FIC index ([6]; in combination with CAZ) of 0.625. For the same molecule, the FIC index ([6]; in combination with MPC) was 0.508, the FIC index ([6]; in combination with PIPC) was 0.53 and the FIC index ([6]; in combination with RFP) was 0.531. The FIC index ([6]; in combination with TMP) was 0.531, the FIC index ([7]; in combination with AMK) was 0.375 and the FIC index ([7]; in combination with CAZ) was 0.563. For the same molecule, the FIC index ([7]; in combination with IPM) was 0.5, the FIC index ([7]; in combination with LVFX) was 0.625 and the FIC index ([7]; in combination with PIPC) was 0.375. For the same molecule, the FIC index ([7]; in combination with PL-B) was 0.531, the FIC index ([7]; in combination with RFP) was 0.313 and the FIC index ([7]; in combination with TMP) was 0.502. The “combinational effect with other antibacterial compounds” value [7] was “additive or synergistic effect”, the FIC index ([8]; in combination with AMK) was 0.75 and the FIC index ([8]; in combination with CAZ) was 0.625. The FIC index ([8]; in combination with IPM) was 0.375, the FIC index ([8]; in combination with LVFX) was 0.563 and the FIC index ([8]; in combination with MPC) was under 0.375. It also gave an FIC index ([8]; in combination with PIPC) of under 0.5, an FIC index ([8]; in combination with PL-B) of 0.156 and an FIC index ([8]; in combination with RFP) of 0.281. The FIC index ([8]; in combination with TMP) was 0.375.
Work on `CC1(C)[C@H](C(=O)O)N2C(=O)C[C@H]2S1(=O)=O` [SBT, sulbactam sodium] yielded an MIC ([9]; Acinetobacter) of over 32 µg/mL and an MIC ([2]; Acinetobacter) of over 32 µg/mL.
`C[C@@H](O)[C@H]1C(=O)N2C(C(=O)O)=C(S[C@@H]3CN[C@H](C(=O)N(C)C)C3)[C@H](C)[C@H]12` [MEPM, meropenem hydrate, reference compound] was tested, and the MIC [9, 12] was over 32 µg/mL, the MIC [2, 13] was over 32 µg/mL and the MIC ([3]; Klebsiella pneumoniae, test compound alone (β-lactamase inhibitor N/A)) was over 128 µg/mL. For the same molecule, the MIC ([4]; Klebsiella pneumoniae, test compound alone (β-lactamase inhibitor N/A), read-out: MIC) was 32 µg/mL.
In the case of `CC(C)(O/N=C(\C(=O)N[C@@H]1C(=O)N2C[C@@](C(=O)O)(N3CCN(NC(=O)C(=O)c4ccc(O)c(O)c4Cl)C3=O)S[C@H]12)c1csc(N)n1)C(=O)O` [Compound A], the MIC ([10]; AVI added at 4 μg/mL) is reported as under 0.015 µg/mL, the MIC ([10]; CVA added at 4 μg/mL) is reported as under 0.015 µg/mL and the MIC ([10]; NAC added at 4 μg/mL) is reported as under 0.015 µg/mL. For the same molecule, the MIC ([10]; SBT added at 4 μg/mL) was under 0.015 µg/mL, the MIC ([10]; TAZ added at 4 μg/mL) was under 0.015 µg/mL and the MIC ([10]; VAB added at 4 μg/mL) was 0.06 µg/mL. It also gave an MIC ([10]; ZID added at 4 μg/mL) of under 0.015 µg/mL, an MIC [10, 11] of 0.12 µg/mL and an MIC [1, 11] of 1 µg/mL. It also gave an MIC ([1]; with AVI at 4 μg/mL) of 0.06 µg/mL, an MIC ([1]; with SBT at 4 μg/mL) of 0.5 µg/mL and an MIC ([1]; with TAZ at 4 μg/mL) of 0.25 µg/mL. For the same molecule, the MIC ([1]; with VAB at 4 μg/mL) was 0.12 µg/mL, the “antibacterial activity in combination with two β-lactamase inhibitors” value [2] was “High antibacterial activity” and the MIC ([3]; AVI added at 4 μg/mL) was 0.12 µg/mL. The MIC ([3]; NAC added at 4 μg/mL) was 0.03 µg/mL, the MIC ([3]; ZID added at 4 μg/mL) was under 0.015 µg/mL and the MIC [3, 11] was 0.5 µg/mL. It also gave an MIC ([4]; AVI added at 4 μg/mL) of 0.25 µg/mL, an MIC ([4]; NAC added at 4 μg/mL) of under 0.015 µg/mL and an MIC ([4]; VAB added at 4 μg/mL) of 1 µg/mL. For the same molecule, the MIC ([4]; ZID added at 4 μg/mL) was under 0.015 µg/mL, the MIC [4, 11] was 2 µg/mL and the “antibacterial activity in combination with a β-lactamase inhibitor versus without” value [4] was “higher antibacterial activity”. The MIC ([5]; NAC added at 4 μg/mL) was 0.06 µg/mL, the MIC ([5]; ZID added at 4 μg/mL) was under 0.015 µg/mL and the MIC [5, 11] was 0.5 µg/mL. For the same molecule, the FIC index ([6]; in combination with AMK) was 0.5625, the FIC index ([6]; in combination with CAZ) was 0.625 and the FIC index ([6]; in combination with IPM) was 0.5156. The FIC index ([6]; in combination with LVFX) was 0.75, the FIC index ([6]; in combination with MPC) was 0.5078 and the FIC index ([6]; in combination with PIPC) was 0.5625. The FIC index ([6]; in combination with RFP) was 0.625, the FIC index ([6]; in combination with TC) was 0.75 and the FIC index ([6]; in combination with TMP) was 0.625. For the same molecule, the FIC index ([7]; in combination with AMK) was 0.5, the FIC index ([7]; in combination with CAZ) was 0.5625 and the FIC index ([7]; in combination with IPM) was 0.252. The FIC index ([7]; in combination with LVFX) was 0.5625, the FIC index ([7]; in combination with PIPC) was 0.5 and the FIC index ([7]; in combination with PL-B) was 0.625. The FIC index ([7]; in combination with RFP) was 0.281, the FIC index ([7]; in combination with TC) was 0.375 and the “combinational effect with other antibacterial compounds” value [7] was “additive or synergistic effect”. The FIC index ([8]; in combination with CAZ) was 0.625, the FIC index ([8]; in combination with IPM) was 0.375 and the FIC index ([8]; in combination with LVFX) was 0.75. For the same molecule, the FIC index ([8]; in combination with MPC) was under 0.5, the FIC index ([8]; in combination with PIPC) was 0.375 and the FIC index ([8]; in combination with PL-B) was 0.125. The FIC index ([8]; in combination with RFP) was 0.502 and the FIC index ([8]; in combination with TMP) was 0.375.
In the case of `NC(=O)[C@@H]1CC[C@@H]2CN1C(=O)N2OS(=O)(=O)O` [AVI, avibactam sodium], the MIC [9, 12] is reported as over 32 µg/mL and the MIC [2, 13] is reported as over 32 µg/mL.

Reference: US20220241249A1, “PHARMACEUTICAL COMPOSITION AND KIT CONTAINING NOVEL PENAM DERIVATIVE OR SALT THEREOF AND ONE OR MORE COMPOUNDS SELECTED FROM beta-LACTAMASE INHIBITORY COMPOUND AND ANTIBACTERIAL COMPOUND OR SALTS THEREOF” (priority 2019, published 2022)
